# Measured values from article PMC10597491 (PLOS ONE, 2023).
# Bridge positions count the residues as written; N and C are the ends. Ends that are not written are not given here.
# Legend:
# human naive CD4+ T-cells = test: pSTAT5 ELISA in isolated naive CD4+ T-cells; type: cell-based; conditions: for EC50: rested naive CD4+ T-cells, 15 min exposure, pSTAT5 ELISA
# Experimental: (§1) We first assessed induction kinetics over a time course of compound exposure. Saturating concentrations of each of the compounds, previously determined to elicit maximum response of pSTAT5 signaling, were applied to the cells and pSTAT5 levels monitored for up to 2 hours. The resulting time-response profiles served to compare the kinetics of signal induction for the different compounds, and to determine Tmax for correct time of exposure in subsequent dose response determinations for each compound. In these studies, IL-7-induced pSTAT5 accumulation rose rapidly to a maximum by 15 to 30 minutes, then declined slowly for the remainder of the time course.
# (§2) Naive CD4+ and CD8+ T-cells, were separately isolated by negative selection from PBMCs, and rested overnight prior to compound exposure.
# (§3) For preparation of lymphocyte subsets, naïve CD4+ T-cells were isolated via two-stage negative selection with EasySep™ Human Naïve CD4+ T-Cell Isolation Kit II (Stemcell Technologies Cat# 17555); and CD8+ T-cells were isolated by negative selection from PBMCs with Stem Cell Technology Easy Sep CD8+ kit, or obtained freshly prepared from Stanford Blood Center. Rested naïve CD4+ T-cells or CD8+ T-cells were prepared by overnight incubation at 37°C, 5% CO2 in CTS™ OpTmizer™ T-Cell Expansion SFM (ThermoFisher Scientific Cat# A1048501).
# (§4) Cells were deprived of growth factors by overnight incubation at 5×10^5 cells/mL in starvation medium (RPMI 1640 + 4.5 g/L glucose + 0.2% FBS + 2 mM L-glutamine + 1 mM NaPyr + 10 mM HEPES + 0.5x penicillin-streptomycin with no cytokine supplement) in T75 flasks. For assays, cells were plated in 96-well V-bottom plates at 2×10^5 cells/well. […] Following incubation, cell extracts were prepared by adding a mixture of 10x Cell Lysis Buffer (Cell Signaling Technology Cat# 9803) and 100x HALT Phosphatase and Protease Inhibitor Cocktail (Thermo Fisher Cat# 78442) directly to the wells. The plates were agitated at 25°C for 5 min to prepare cell extracts for immediate use or to be stored at -80°C until assay. […]
# human naive CD8+ T-cells = test: pSTAT5 ELISA in isolated naive CD8+ T-cells; type: cell-based; conditions: for EC50: rested naive CD8+ T-cells, 15 min exposure, pSTAT5 ELISA
# Experimental: as §1, §2, §3, §4
# [1] = test system: rested human CD8+ T-cells; test: IL-7Rα (CD127) internalization assay; type: cell-based
# Experimental: In previous studies, the decline of IL-7Rα on the surface of IL-7-treated CD8+ cells was reported to proceed with approximately linear kinetics, reaching ~80% disappearance of receptor over 6 hours at 37°C [49]. […] Surface IL-7R was pre-loaded with saturating concentrations of the agonists on ice and shifted to 37°C to allow internalization, then shifted back to ice to stop internalization. […] A parallel assay with all incubations held on ice for the duration of the time course was also run.
# Fig 8 Test compounds induce decrease in cell surface IL-7Rα. […] Following timed incubations, the samples were stained, fixed, and analyzed by flow cytometry; and data was collected as median fluorescence intensity (MFI), as detailed in Methods. […] The primary flow data (MFI) is shown in S3 Fig.
# CD8+ cells isolated by negative selection from PBMCs with Stem Cell Technology Easy Sep CD8+ kit, or obtained freshly prepared from Stanford Blood Center, were rested overnight in RPMI 1640 containing Pen/Strep, L-Glutamine and 20% FBS; then resuspended to 7.0 x10^6 cells/mL. […] To determine levels of cell surface IL-7Rα, analysis was performed by flow cytometry to determine median fluorescence intensity (MFI) of cells at each condition. […]
# [2] = Plasma stability in vitro, cynomolgus plasma; type: in vitro ADME; set-up: dose or concentration left out as unconfirmed; conditions: cynomolgus monkey, 37°C, incubated in duplicate, intact peptide by LC/MS/MS, read-out: t1/2 in cynomolgus plasma (converted)
# From the text: Affinity maturation of these initial families produced ligands with improved affinities; and combinations of these ligands (one each for IL-7Rα and γc) were joined into heterodimers in a variety of orientations (i.e., joined by N-termini, C-termini, or N-to-C termini), with several connection chemistries, for testing as IL-7R agonists in cell-based assays. The lead peptide agonist for detailed characterization, as described here, is a fusion of peptides MDK1248 and MDK1188, joined with a short intervening linker to form the single-chain peptide MDK1472. The peptides were analyzed for sequence similarity to IL-7, and none was found.
# Supplementary file pone.0286834.s001.pptx: S1 Fig Plasma stability of MDK 1472 in vitro. […] MDK1472 or control peptide YGGFL incubated in duplicate in human or cynomolgus plasma at 37°C. At indicated time points, compounds were isolated from the plasma and the quantity of intact peptides measured by LC/MS/MS (Study performed by Quintara Discovery, Hayward, CA). (PPTX) Click here for additional data file.
Substance,EC50 (human naive CD4+ T-cells),EC50 (human naive CD8+ T-cells),"loss of IL-7Rα surface density ([1]; 6 hours at 37°C, 10 nM IL-7)","agonist efficacy, CD4+ (human naive CD4+ T-cells; dose response at 15 min)","agonist efficacy, CD8+ (human naive CD8+ T-cells; dose response at 15 min)","rate of surface decline of IL-7Rα ([1]; 1 μM, 37°C)",half-life [2]
IL-7: human IL-7 cytokine (Peprotech),2.5 pM,2.8 pM,60%,,,,
"Ac-GWGIPWCTLDPGSLQCAWLGKHGGGGSGGVVCQDWEGVELCWQGG (disulfide 7-16, 32-41) [MDK1472]",1300 pM,350 pM,,full agonists,full agonists,tracked very closely with that induced by IL-7,104 h
